Marks after values point to notes of the source that are not given here.
Test system: lactating dairy cattle
Experiment: Combined analysis of Wisconsin and New York Studies
Type: in vivo
Design: DMI / NEL: unit not given here
Conditions: for Milk protein percentage: all treatments
Protocol: The instant example provides the combined analysis of data from the two studies (Wisconsin Study and New York Study). The two studies were combined statistically to explore effects on milk production efficiency and other variables associated with efficiency. By effectively doubling pen numbers an increase in power of the analysis was provided. Analysis of these combined datasets was performed in various ways, with the inclusion of either weekly milk yield averages or sample day milk yields to calculate milk component yields, component corrected yields, and feed efficiency. Further, the combined dataset was analyzed using data collected from all experimental weeks as well as the exclusion of data from the first three weeks of experimental treatment feeding. This was done to exclude any shifts in response variables while the rumen environment was adapting to the treatment provided. Materials & Methods: All data from both experimental locations were combined and statistically analyzed as a longitudinal experiment design through SAS version 9.4 (SAS Institute Inc., Cary, N.C.). Experimental response variables, excluding body condition score (BCS), were analyzed using PROC MIXED and […] statements to compare treatment means using the following model: γijklm=μ+[…] Where γijklm=an individual observation of the response variable analyzed, Ti=the i^th dietary treatment, Wj=the j^th experimental week, TWij=the interaction of the i^th treatment with the j^th experimental week, Lk=the k^th experimental location, Pl(i*k)=the 1th pen within the i^th treatment and k^th experimental location, WPjl(i*k)=the interaction of the j^th experimental week with the 1th pen within the i^th treatment and k^th experimental location, Cm(l*i*k)=the m^th cow within the 1th pen, the i^th treatment and k^th experimental location, BXmlik=the covariate observation obtained after three weeks of feeding a common diet to all treatment groups, and ∈ijklmn=the random error of the m^th cow within the 1th pen, the i^th treatment and the k^th location. […] Data were analyzed with pen as the experimental unit and cow as the observational unit. Dietary treatment and experimental week were considered fixed effects, whereas location, pen and cow were considered random effects. An auto-regressive covariance structure [AR(1)] was used to analyze repeated measurements (week of experimental period) with cow nested in pen within treatment as the subject. For pen level observations (DMI, production efficiency and NEL measurements), the main effect of cattle was dropped from the statistical model above. Further, pen was used as the subject of the auto-regressive repeated analysis. Degrees of freedom were adjusted using the Kenward-Roger option and multiple treatment […] comparisons were adjusted by the Tukey method. Non-parametric analysis of BCS measurements, via PROC NPAR1WAY, was performed to evaluate differences in dietary treatments at both the initiation of the experiment and during the final week of the experiments. Statistical significance was reported as P≤0.05 and tendencies as 0.05<P≤0.10. […] This analysis, deemed the 'post-acclimation' analysis, removed the first three experimental weeks of data from the experimental dataset, leaving only the fourth to ninth weeks for statistical interpretation. The statistical model was identical to the previously described approach and all data, except for body weight and NEL (due to missing data), were reanalyzed for interpretation.

[1] = 14.5 g/ton, sample day, weeks 4 through 9
[2] = 14.5 g/ton, weekly averaged, entire experiment
[3] = 14.5 g/ton, weekly averaged, weeks 4 through 9
[4] = 18 g/ton, experimental weeks 4 through 9
[5] = 18 g/ton, sample day, entire experiment
[6] = 18 g/ton, sample day, weeks 4 through 9
[7] = 18 g/ton, weekly averaged, entire experiment
[8] = 18 g/ton, weekly averaged, weeks 4 through 9

CC[C@@]1([C@@H]2O[C@@H]([C@H]3O[C@@](O)(CO)[C@H](C)C[C@@H]3C)C[C@@H]2C)CC[C@H]([C@]2(C)CC[C@]3(C[C@H](O)[C@@H](C)[C@@H]([C@@H](C)[C@@H](OC)[C@H](C)C(=O)O)O3)O2)O1 [monensin]
Fat yield [1]: 4.06^b lb | Lactose yield [1]: 4.27 lb | Milk:Feed [1]: 1.57^y | Protein yield [1]: 3.02 lb | SCM [1]: 95.2^b lb | SCM:Feed [1]: 1.62^by | NEL (14.5 g/ton, weekly averaged milk yield, entire experiment): 1.54 | ECM [2]: 102.4 lb | ECM:Feed [2]: 1.74^b | FCM [2]: 96.9 lb | FCM:Feed [2]: 1.65^b | Fat yield [2]: 4.03 lb | Lactose yield [2]: 4.26 lb | Milk Yield [2]: 91.0 lb | Milk:Feed [2]: 1.57 | Protein yield [2]: 2.98 lb | SCM [2]: 94.5^y lb | SCM:Feed [2]: 1.61^b | ECM [3]: 101.7^y lb | ECM:Feed [3]: 1.72^b | FCM [3]: 96.1^y lb | FCM:Feed [3]: 1.63^b | Fat yield [3]: 4.00^b lb | Lactose yield [3]: 4.19 lb | Milk Yield [3]: 89.8 lb | Milk:Feed [3]: 1.54 | Protein yield [3]: 2.97 lb | SCM [3]: 93.7^b lb | SCM:Feed [3]: 1.58^b | Sample day milk yield difference from the control treatment (18 g/ton treatment, post-acclimation data): 1.5 pounds | DMI (18 g/ton, entire experiment): 59.7 | MUN (18 g/ton, entire experiment): 10.4^ab mg/dL | Milk Fat, % (18 g/ton, entire experiment): 4.42% | Milk Fatty Acid: De novo (18 g/ton, entire experiment): 1.06^ab g/100 g | Milk Fatty Acid: Mixed (18 g/ton, entire experiment): 1.77 g/100 g | Milk Fatty Acid: Performed (18 g/ton, entire experiment): 1.30 g/100 g | Milk Fatty Acid: Total FA (18 g/ton, entire experiment): 4.13 g/100 g | Milk Lactose, % (18 g/ton, entire experiment): 4.66% | Milk Protein, % (18 g/ton, entire experiment): 3.29% | DMI [4]: 60.2 | MUN [4]: 10.4^abx mg/dL | Milk Fat, % [4]: 4.43% | Milk Fatty Acid: De novo [4]: 1.07^ab g/100 g | Milk Fatty Acid: Mixed [4]: 1.78^ab g/100 g | Milk Fatty Acid: Performed [4]: 1.32 g/100 g | Milk Fatty Acid: Total FA [4]: 4.16 g/100 g | Milk Lactose, % [4]: 4.66% | Milk Protein, % [4]: 3.32% | NEL (18 g/ton, sample day milk yield, entire experiment): 2.39 | Day of Sample Milk Yield [5]: 91.6 lb | ECM [5]: 102.2^ab lb | ECM:Feed [5]: 1.71^a | FCM [5]: 96.7^ab lb | FCM:Feed [5]: 1.61^a | Fat yield [5]: 3.99^xy lb | Lactose yield [5]: 4.27 lb | Milk:Feed [5]: 1.55^x | Protein yield [5]: 2.98 lb | SCM [5]: 94.1^xy lb | SCM:Feed [5]: .157^a | Day of Sample Milk Yield [6]: 90.6 lb | ECM [6]: 101.4^ab lb | ECM:Feed [6]: 1.67^a | FCM [6]: 95.8^ab lb | FCM:Feed [6]: 1.58^ab | Fat yield [6]: 3.96^ab lb | Lactose yield [6]: 4.22 lb | Milk:Feed [6]: 1.51^x | Protein yield [6]: 2.97 lb | SCM [6]: 93.4^ab lb | SCM:Feed [6]: 1.54^a | NEL (18 g/ton, weekly averaged milk yield, entire experiment): 2.38 | ECM [7]: 100.9 lb | ECM:Feed [7]: 1.69^ax | FCM [7]: 95.5 lb | FCM:Feed [7]: 1.60^a | Fat yield [7]: 3.95 lb | Lactose yield [7]: 4.22 lb | Milk Yield [7]: 90.4 lb | Milk:Feed [7]: 1.53 | Protein yield [7]: 2.95 lb | SCM [7]: 93.1^x lb | SCM:Feed [7]: 1.56^a | ECM [8]: 100.2^xy lb | ECM:Feed [8]: 1.66^a | FCM [8]: 94.6^xy lb | FCM:Feed [8]: 1.56^a | Fat yield [8]: 3.91^ab lb | Lactose yield [8]: 4.16 lb | Milk Yield [8]: 89.4 lb | Milk:Feed [8]: 1.50 | Protein yield [8]: 2.94 lb | SCM [8]: 92.3^ab lb | SCM:Feed [8]: 1.53^a | Milk protein percentage (entire study): 3.29% | Milk protein percentage (post-acclimation period): 3.32%
